The numbers were not newly measured in patent US20140314667A1, “METHODS OF TREATING EPIDERMAL GROWTH FACTOR DELETION MUTANT VIII RELATED DISORDERS” (AMGEN INC., priority 2011, published 2014), which cites them from elsewhere.

The conditions of data set [1]: U.S. Pat. No. 3,896,111; cited from earlier work.
The test system of data set [2] is P388 lymphocytic leukemia system. Conditions: Kupchan 1974; cited from earlier work.
In data set [3] the test system is human acute lymphoblastic leukemia line CEM. Conditions: in vitro, Wolpert-DeFillippes et al.; cited from earlier work.
Data set [4] has as its system L1210 mouse leukemia system, the human Lewis lung carcinoma system and the human B-16 melanocarcinoma system. The following applies: Kupchan 1974; cited from earlier work.
The test system of data set [5] is P388, L1210, and LY5178 murine leukemic cell suspensions. The following applies: in vitro; cited from earlier work.
Another data set deals with L1210 cells. The following applies: Sieber et al.; untreated control mitotic index 3.2 to 5.8%; cited from earlier work.

Turning to `COc1cc2cc(c1Cl)N(C)C(=O)C[C@H](OC(=O)[C@H](C)N(C)C(C)=O)[C@]1(C)O[C@H]1[C@H](C)[C@@H]1C[C@@](O)(NC(=O)O1)[C@H](OC)/C=C/C=C(\C)C2` [Maytansine], the “more cytotoxic than conventional cancer chemotherapeutic agents like methotrexate, daunorubicin, and vincristine” value in data set [1] is recorded as 100 to 1000 fold. Also, in data set [2], the “dosage range over which tumor growth was inhibited” value was 50- to 100 fold. In data set [3], the inhibitory concentration was ≥ 10^−7 mg/ml. Also, the inhibitory activity entry in data set [4] is on record as “significant inhibitory activity”. Further, the inhibitory doses in data set [5] is listed as 10^−3 to 10^−1 µg/µl. The “cells accumulating in mitosis” value in the data set with L1210 cells is listed as 67%.
